Measurements taken from patent publication US6632669B2, “Plant kinases and methods of modulation of their activity in plants” (The Salk Institute for Biological Studies, priority 1999, dated 2003).

Experiments:
Arabidopsis MAP kinase = details: tobacco cell extract, protoplasts treated with 2,4-D; cited from earlier work
35S::PID plants = assay: Root growth in response to exogenous auxin in 35S::PID plants (selected on kanamycin plates with NAA); assay type: in vivo, Arabidopsis; details: for Lateral roots / Primary root length: mean ± standard deviation
Method: (§1) Plants were grown in florescent light under long-day conditions (16 hours light, 8 hours dark). Wild type was Columbia. Transgenic plants were generated by vacuum infiltration (Bechtold et al. (1993) C. R. Acad. Sci. 316:1194-1199). For root gravitropism experiments, seeds were grown on vertically oriented 1/2×MS plates at 24° C.
The failure of 35S::PID plants to develop lateral roots in response to exogenous auxin can be explained by defects in either auxin uptake or response. To distinguish between these possibilities, 35S: PID plants was selected on plates containing kanamycin and 0, 0.1, 1.0 or 10.0 μM NAA.

35S::PID T2 plants = assay: Lateral root formation of 35S::PID T2 plants grown on plates supplemented with NAA; assay type: in vivo, Arabidopsis; details: 10 days on 0.1 μm NAA
Method: as §1
To determine whether the loss of lateral root formation in 35::PID plants could be bypassed by exogenous auxin, T2 plants were grown on plates supplemented with the synthetic auxin-analog NAA ([…]). […] As in the previous experiment, there was a perfect correlation between loss of lateral root formation and agravitropic root growth.

Row | SMILES | Effectiveness of MAP kinase phosphorylation by extract of treated protoplasts versus extracts from auxin-starved cultures (Arabidopsis MAP kinase) | Lateral root growth at very high NAA concentrations (35S::PID plants; 35S::PID plants) | Primary root elongation with increasing NAA concentration (35S::PID plants; 35S::PID plants, 0, 0.1, 1.0 or 10.0 μM NAA) | Lateral roots (35S::PID plants; 35S::PID plants, [NAA] 0.1 μM) | Primary root length (35S::PID plants; 35S::PID plants, [NAA] 0.1 μM) | Lateral roots (35S::PID plants; 35S::PID plants, [NAA] 1 μM) | Primary root length (35S::PID plants; 35S::PID plants, [NAA] 1 μM) | Lateral roots (35S::PID plants; 35S::PID plants, [NAA] 10 μM) | Primary root length (35S::PID plants; 35S::PID plants, [NAA] 10 μM) | Bypass of the block in lateral root formation caused by PID overexpression (35S::PID T2 plants; T2 plants) | Average number of lateral roots in seedlings that produced lateral roots (35S::PID T2 plants; T2 progeny of 35S::PID, 11 of 37 germinated seedlings (range 18-31), remaining 26 produced none)
1 | O=C(O)COc1ccc(Cl)cc1Cl [2,4-D] | three to four-fold more effective |  |  |  |  |  |  |  |  |  | 
2 | O=C(O)Cc1ccc2ccccc2c1 [NAA, β-napthaleneacetic acid] |  | still inhibited | progressively inhibited | 0.1 ± 0.3 | 11.6 ± 5.9 mm | 0.1 ± 0.3 | 6.0 ± 3.1 mm | 0.7 ± 1.2 | 1.4 ± 0.5 mm | did not overcome the block in lateral root formation | 24
